# Data from the SangsterLogP compilation.
row,SMILES,logP
1,Cc1ccc(S(=O)(=O)NC(=O)C(C)C)c([N+](=O)[O-])c1,2.17
2,CCC(CC)C(=O)NS(=O)(=O)c1ccccc1N,1.64
3,Cc1ccc(S(=O)(=O)NC(=O)C(C)C)c(N)c1,1.65
4,COc1ccc(S(N)(=O)=O)c(NC(=O)C(C)C)c1,1.37
5,CCC(CC)C(=O)Nc1cc(Cl)ccc1S(N)(=O)=O,2.55
6,CCC(CC)C(=O)NS(=O)(=O)c1ccc(C)cc1[N+](=O)[O-],2.67
7,CC(C)C(=O)NS(=O)(=O)c1ccccc1N,1.17
8,COc1ccc(S(=O)(=O)NC(=O)C(C)C)c(N)c1,1.58
9,CCC(CC)C(=O)NS(=O)(=O)c1cc([N+](=O)[O-])cc(C(F)(F)F)c1,3.57
10,CCC(CC)C(=O)Nc1cc(OC)ccc1S(N)(=O)=O,2.01
11,Cc1ccc(S(N)(=O)=O)c(NC(=O)C(C)C)c1,1.45
12,CC(C)C(=O)Nc1cc(Cl)ccc1S(N)(=O)=O,1.87
13,CCC(CC)C(=O)NS(=O)(=O)c1ccc(Cl)cc1N,2.53

# The remaining lines, values ahead:
row,logP,SMILES
1,2.45,CC(C)C(=O)Nc1ccc(C(F)(F)F)cc1S(N)(=O)=O
2,2.56,CC(C)C(=O)NS(=O)(=O)c1ccc(C(F)(F)F)cc1N
3,1.72,CC(C)C(=O)NS(=O)(=O)c1ccccc1[N+](=O)[O-]
4,3.1,CC(C)C(=O)NS(=O)(=O)c1cc([N+](=O)[O-])cc(C(F)(F)F)c1
5,3.06,CCC(CC)C(=O)Nc1cc(C(F)(F)F)ccc1S(N)(=O)=O
6,2.13,CCC(CC)C(=O)Nc1cc(C)ccc1S(N)(=O)=O
7,2.03,CCC(CC)C(=O)NS(=O)(=O)c1ccc(OC)cc1N
8,2.17,CCC(CC)C(=O)NS(=O)(=O)c1ccccc1[N+](=O)[O-]
9,1.62,CCC(CC)C(=O)Nc1ccccc1S(N)(=O)=O
10,2.18,CCC(CC)C(=O)NS(=O)(=O)c1ccc(C)cc1N
11,0.97,CC(C)C(=O)Nc1ccccc1S(N)(=O)=O
